Drawing on paper PMC11783400, “Assessment of Potential Drug–Drug Interactions for Novel Oral Melanocortin‐1 Receptor Agonist Dersimelagon” (Pharmacology Research & Perspectives, 2025), this text covers IC50 and Ki for one compound.

One data set addresses T1, UGT1A3 (Homo sapiens, UniProt P35503).
T1 construct: native enzyme in human liver microsomes
T1 sequence (P35503 29-534): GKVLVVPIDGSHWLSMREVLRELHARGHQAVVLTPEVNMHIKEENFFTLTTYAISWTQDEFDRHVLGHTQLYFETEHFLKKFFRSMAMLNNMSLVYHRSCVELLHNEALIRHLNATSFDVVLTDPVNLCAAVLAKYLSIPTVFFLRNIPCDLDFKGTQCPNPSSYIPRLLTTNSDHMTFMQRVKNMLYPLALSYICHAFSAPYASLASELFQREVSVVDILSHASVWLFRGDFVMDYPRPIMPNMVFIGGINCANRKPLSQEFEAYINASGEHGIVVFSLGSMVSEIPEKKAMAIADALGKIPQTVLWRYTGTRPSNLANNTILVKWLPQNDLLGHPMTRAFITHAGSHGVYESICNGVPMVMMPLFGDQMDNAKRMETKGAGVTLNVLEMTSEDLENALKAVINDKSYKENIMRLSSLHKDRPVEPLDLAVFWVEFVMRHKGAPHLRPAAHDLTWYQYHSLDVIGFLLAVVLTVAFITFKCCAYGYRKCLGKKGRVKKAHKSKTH
Kind of data set: glucuronidation inhibition in human liver microsomes. The class given is biochemical. Particulars: substrate chenodeoxycholic acid; direct inhibition. An excerpt: glucuronidation inhibition in human liver microsomes on UGT1A3
Background: Microsomes from liver hold many membrane-bound enzymes, among them those of drug oxidation.

The next data set deals with T2, UGT2B7 (Homo sapiens, UniProt P16662).
T2 construct: native enzyme in human liver microsomes
T2 sequence (P16662 24-529): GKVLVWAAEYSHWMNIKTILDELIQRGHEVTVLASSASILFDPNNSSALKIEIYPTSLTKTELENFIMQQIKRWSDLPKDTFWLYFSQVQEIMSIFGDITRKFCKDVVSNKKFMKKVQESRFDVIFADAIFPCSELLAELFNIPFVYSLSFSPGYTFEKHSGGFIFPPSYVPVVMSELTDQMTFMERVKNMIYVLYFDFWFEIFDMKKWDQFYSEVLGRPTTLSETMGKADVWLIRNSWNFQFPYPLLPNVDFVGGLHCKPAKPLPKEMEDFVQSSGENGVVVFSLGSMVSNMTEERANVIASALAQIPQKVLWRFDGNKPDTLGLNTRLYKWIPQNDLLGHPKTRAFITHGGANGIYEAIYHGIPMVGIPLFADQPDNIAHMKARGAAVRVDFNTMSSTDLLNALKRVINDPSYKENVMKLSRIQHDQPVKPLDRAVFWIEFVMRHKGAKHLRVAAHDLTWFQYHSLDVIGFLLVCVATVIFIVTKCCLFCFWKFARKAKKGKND
The data set is described as above. The class given is biochemical. Particulars: substrate 3'-azido-3'-deoxythymidine; direct inhibition. From the text:
glucuronidation inhibition in human liver microsomes on UGT2B7

The target of data set [1] is T3, BCRP (breast cancer resistance protein) (Homo sapiens, UniProt Q9UNQ0).
T3 construct: gene ABCG2; endogenous transporter in Caco-2 cell monolayers
T3 sequence (Q9UNQ0 1-655): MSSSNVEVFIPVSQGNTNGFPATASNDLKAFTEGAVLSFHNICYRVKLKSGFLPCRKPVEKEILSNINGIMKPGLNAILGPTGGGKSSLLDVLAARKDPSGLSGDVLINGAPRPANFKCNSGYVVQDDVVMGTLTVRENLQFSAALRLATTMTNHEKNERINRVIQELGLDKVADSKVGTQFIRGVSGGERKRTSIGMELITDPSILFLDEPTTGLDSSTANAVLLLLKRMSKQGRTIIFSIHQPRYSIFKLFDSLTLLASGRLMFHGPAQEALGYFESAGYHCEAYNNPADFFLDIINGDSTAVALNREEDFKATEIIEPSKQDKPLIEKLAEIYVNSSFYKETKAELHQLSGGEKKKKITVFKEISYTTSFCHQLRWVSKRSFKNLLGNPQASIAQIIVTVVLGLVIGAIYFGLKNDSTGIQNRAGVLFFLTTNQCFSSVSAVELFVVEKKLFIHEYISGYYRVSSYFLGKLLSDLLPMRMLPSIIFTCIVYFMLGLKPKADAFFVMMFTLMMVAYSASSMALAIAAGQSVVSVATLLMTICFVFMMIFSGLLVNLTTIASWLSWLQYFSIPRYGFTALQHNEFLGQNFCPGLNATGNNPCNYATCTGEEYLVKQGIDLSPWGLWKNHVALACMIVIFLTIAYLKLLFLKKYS
The experiment in a line: transport inhibition in Caco-2 monolayers. The class given is cell-based. An excerpt:
transport inhibition in Caco-2 monolayers on BCRP (breast cancer resistance protein)
Background: Caco-2 monolayers are a common model of the intestinal barrier.

Another data set has as its target T4, CYP2C9 (Homo sapiens, UniProt P11712).
T4 construct: native enzyme in human liver microsomes
The experiment in a line: CYP activity inhibition in human liver microsomes. The class given is biochemical. From the text:
CYP activity inhibition in human liver microsomes on CYP2C9

Another data set deals with T5, CYP1A2 (Homo sapiens, UniProt P05177).
T5 construct: native enzyme in human liver microsomes
T5 sequence (P05177 2-516): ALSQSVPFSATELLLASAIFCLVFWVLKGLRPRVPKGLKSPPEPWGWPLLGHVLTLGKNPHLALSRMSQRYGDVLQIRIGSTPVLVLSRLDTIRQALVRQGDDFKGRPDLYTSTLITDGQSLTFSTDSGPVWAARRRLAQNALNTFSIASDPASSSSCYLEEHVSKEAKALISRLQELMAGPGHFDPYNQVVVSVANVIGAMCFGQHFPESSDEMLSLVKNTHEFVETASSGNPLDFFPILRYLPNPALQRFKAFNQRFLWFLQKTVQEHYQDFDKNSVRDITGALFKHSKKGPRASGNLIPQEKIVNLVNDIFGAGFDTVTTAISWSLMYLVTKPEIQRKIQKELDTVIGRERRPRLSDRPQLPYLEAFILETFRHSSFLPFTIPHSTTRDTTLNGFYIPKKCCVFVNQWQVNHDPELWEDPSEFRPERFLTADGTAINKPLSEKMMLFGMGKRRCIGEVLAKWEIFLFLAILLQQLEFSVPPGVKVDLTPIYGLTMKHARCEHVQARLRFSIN
The experiment in a line: CYP activity inhibition in human liver microsomes. The class given is biochemical. Particulars: read-out: IC50 (μM) / Direct inhibition. An excerpt:
CYP activity inhibition in human liver microsomes on CYP1A2

The next data set has as its target T6, CYP2C19 (Homo sapiens, UniProt P33261).
T6 construct: native enzyme in human liver microsomes
The experiment in a line: CYP activity inhibition in human liver microsomes. The class given is biochemical. Particulars: read-out: IC50 (μM) / Direct inhibition. From the text: CYP activity inhibition in human liver microsomes on CYP2C19

T4 sequence (P11712 whole entry): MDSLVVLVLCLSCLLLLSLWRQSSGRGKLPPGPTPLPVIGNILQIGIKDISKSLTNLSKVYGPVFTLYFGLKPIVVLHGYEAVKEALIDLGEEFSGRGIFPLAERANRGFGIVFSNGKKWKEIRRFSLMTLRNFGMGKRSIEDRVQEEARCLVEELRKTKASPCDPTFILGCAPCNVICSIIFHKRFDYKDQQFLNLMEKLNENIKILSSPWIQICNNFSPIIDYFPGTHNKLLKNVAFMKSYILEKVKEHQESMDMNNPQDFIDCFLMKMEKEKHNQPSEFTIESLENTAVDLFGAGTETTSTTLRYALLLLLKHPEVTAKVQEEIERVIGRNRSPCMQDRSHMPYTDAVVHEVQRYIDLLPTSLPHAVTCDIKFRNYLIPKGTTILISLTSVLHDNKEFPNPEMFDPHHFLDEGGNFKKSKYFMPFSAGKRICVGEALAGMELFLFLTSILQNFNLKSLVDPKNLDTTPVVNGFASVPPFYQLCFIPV
T6 sequence (P33261 whole entry): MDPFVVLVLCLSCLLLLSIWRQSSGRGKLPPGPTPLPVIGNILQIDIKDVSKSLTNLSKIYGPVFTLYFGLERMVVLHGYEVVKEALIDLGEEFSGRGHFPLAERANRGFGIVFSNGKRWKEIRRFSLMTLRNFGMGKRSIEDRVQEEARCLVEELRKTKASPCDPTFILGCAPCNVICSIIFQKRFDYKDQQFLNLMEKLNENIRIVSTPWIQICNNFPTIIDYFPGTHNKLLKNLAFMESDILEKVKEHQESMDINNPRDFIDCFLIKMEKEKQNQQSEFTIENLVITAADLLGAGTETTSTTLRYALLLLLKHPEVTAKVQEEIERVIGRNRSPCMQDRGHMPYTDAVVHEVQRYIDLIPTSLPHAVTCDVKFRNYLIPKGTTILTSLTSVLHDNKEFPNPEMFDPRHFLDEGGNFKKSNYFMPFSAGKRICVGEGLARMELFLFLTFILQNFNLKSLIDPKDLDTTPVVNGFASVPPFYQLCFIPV

For the compound `COC[C@H]1CN(C(=O)[C@]2(F)CN(C3CCCC3)C[C@H]2c2ccc(OC)cc2)C[C@@H]1c1ccc(C(F)(F)F)cc1N1CCC(C(=O)O)CC1` [dersimelagon], the IC50 against UGT1A3 is 22.6 µM; on UGT2B7 it was > 50 µM; in data set [1], 0.467 µM; at CYP2C9 (read-out: IC50 (μM) / Direct inhibition), 9.16 µM; at CYP1A2, > 100 µM; on CYP2C19, 23.4 µM. Further, the Ki at CYP2C9 (read-out: Parameters / K i) is 5.13 µM.
